Measured values as given in ChEMBL document CHEMBL1155820, “Lipid-conjugated oligonucleotides via "click chemistry" efficiently inhibit hepatitis C virus translation” (J Med Chem, 2008).
Active and inactive are the calls of the source. No cut-off for these calls is given here.

How the values were obtained:
[1] = Cytotoxicity against human Huh7 cells at 0.1 to 2 uM; type: cell-based; conditions: huh-7, 2 µM
Hepatitis C virus [2] = assay: Inhibition of hepatitis C virus internal ribosome entry site-mediated translation in human Huh7 cells preincubated for 4 hrs in presence of fetal calf serum by bicistronic luciferase reporter gene assay; type: functional, organism-based; conditions: Hepacivirus hominis; Huh-7
Hepatitis C virus [3] = assay: Inhibition of hepatitis C virus internal ribosome entry site-mediated translation in human Huh7 cells at 2 uM preincubated for 4 hrs in presence of fetal calf serum by bicistronic luciferase reporter gene assay; type: functional, Hepacivirus hominis; conditions: Huh-7
Hepatitis C virus [4] = assay: Inhibition of hepatitis C virus internal ribosome entry site-mediated translation in human Huh7 cells at 1 uM preincubated for 4 hrs in presence of fetal calf serum by bicistronic luciferase reporter gene assay; type: functional, Hepacivirus hominis; conditions: Huh-7

| SMILES | Activity [1] | Activity (Hepatitis C virus [2]) | inhibition at 2 µM (Hepatitis C virus [3]) [%] | inhibition at 1 µM (Hepatitis C virus [4]) [%] |
| --- | --- | --- | --- | --- |
| CCCCCCCCCCCCCCCCCCOCC1=CN(C[C@H]2O[C@@H](n3cc(C)c(=O)[nH]c3=O)C[C@@H]2OP(=O)(O)OC[C@H]2O[C@@H](n3cnc4c(N)ncnc43)[C@H](OC)[C@@H]2OP(=O)(O)OC[C@H]2O[C@@H](n3ccc(N)nc3=O)[C@H](OC)[C@@H]2OP(=O)(O)OC[C@H]2O[C@@H](n3ccc(N)nc3=O)[C@H](OC)[C@@H]2OP(=O)(O)OC[C@H]2O[C@@H](n3ccc(N)nc3=O)[C@H](OC)[C@@H]2OP(=O)(O)OC[C@H]2O[C@@H](n3cnc4c(N)ncnc43)[C@H](OC)[C@@H]2OP(=O)(O)OP(=O)(O)OC[C@H]2O[C@@H](n3cnc4c(N)ncnc43)[C@H](OC)[C@@H]2OP(=O)(O)OC[C@H]2O[C@@H](n3ccc(N)nc3=O)[C@H](OC)[C@@H]2OP(=O)(O)OC[C@H]2O[C@@H](n3cnc4c(N)ncnc43)[C@H](OC)[C@@H]2OP(=O)(O)OC[C@H]2O[C@@H](n3ccc(N)nc3=O)[C@H](OC)[C@@H]2OP(=O)(O)OC[C@H]2O[C@@H](n3ccc(=O)[nH]c3=O)[C@H](OC)[C@@H]2OP(=O)(O)OC[C@H]2O[C@@H](n3cnc4c(N)ncnc43)[C@H](OC)[C@@H]2OP(=O)(O)OC[C@H]2O[C@@H](n3ccc(N)nc3=O)[C@H](OC)[C@@H]2OP(=O)(O)OC[C@H]2O[C@@H](n3ccc(=O)[nH]c3=O)[C@H](OC)[C@@H]2OP(=O)(O)OC[C@H]2O[C@@H](n3ccc(N)nc3=O)[C@H](OC)[C@@H]2OP(=O)(O)OC[C@H]2O[C@@H](n3cnc4c(=O)[nH]c(N)nc43)[C@H](OC)[C@@H]2OP(=O)(O)OC[C@H]2O[C@@H](n3cnc4c(=O)[nH]c(N)nc43)[C@H](OC)[C@@H]2OP(=O)(O)OC[C@H]2O[C@@H](n3ccc(N)nc3=O)[C@H](OC)[C@@H]2OP(=O)(O)O)NN1 | Non-toxic | Dose-dependent effect | 50 |  |
| CO[C@@H]1[C@H](OP(=O)(O)O)[C@@H](COP(=O)(O)O[C@H]2[C@@H](OC)[C@H](n3cnc4c(=O)[nH]c(N)nc43)O[C@@H]2COP(=O)(O)O[C@H]2[C@@H](OC)[C@H](n3cnc4c(=O)[nH]c(N)nc43)O[C@@H]2COP(=O)(O)O[C@H]2[C@@H](OC)[C@H](n3ccc(N)nc3=O)O[C@@H]2COP(=O)(O)O[C@H]2[C@@H](OC)[C@H](n3ccc(=O)[nH]c3=O)O[C@@H]2COP(=O)(O)O[C@H]2[C@@H](OC)[C@H](n3ccc(N)nc3=O)O[C@@H]2COP(=O)(O)O[C@H]2[C@@H](OC)[C@H](n3cnc4c(N)ncnc43)O[C@@H]2COP(=O)(O)O[C@H]2[C@@H](OC)[C@H](n3ccc(=O)[nH]c3=O)O[C@@H]2COP(=O)(O)O[C@H]2[C@@H](OC)[C@H](n3ccc(N)nc3=O)O[C@@H]2COP(=O)(O)O[C@H]2[C@@H](OC)[C@H](n3cnc4c(N)ncnc43)O[C@@H]2COP(=O)(O)O[C@H]2[C@@H](OC)[C@H](n3ccc(N)nc3=O)O[C@@H]2COP(=O)(O)O[C@H]2[C@@H](OC)[C@H](n3cnc4c(N)ncnc43)O[C@@H]2COP(=O)(O)OP(=O)(O)O[C@H]2[C@@H](OC)[C@H](n3cnc4c(N)ncnc43)O[C@@H]2COP(=O)(O)O[C@H]2[C@@H](OC)[C@H](n3ccc(N)nc3=O)O[C@@H]2COP(=O)(O)O[C@H]2[C@@H](OC)[C@H](n3ccc(N)nc3=O)O[C@@H]2COP(=O)(O)O[C@H]2[C@@H](OC)[C@H](n3ccc(N)nc3=O)O[C@@H]2COP(=O)(O)O[C@H]2[C@@H](OC)[C@H](n3cnc4c(N)ncnc43)O[C@@H]2COP(=O)(O)O)O[C@H]1n1ccc(N)nc1=O |  | inactive |  |  |
| CO[C@@H]1[C@H](OP(=O)(O)O)[C@@H](COP(=O)(O)O[C@H]2[C@@H](OC)[C@H](n3cnc4c(=O)[nH]c(N)nc43)O[C@@H]2COP(=O)(O)O[C@H]2[C@@H](OC)[C@H](n3cnc4c(=O)[nH]c(N)nc43)O[C@@H]2COP(=O)(O)O[C@H]2[C@@H](OC)[C@H](n3ccc(N)nc3=O)O[C@@H]2COP(=O)(O)O[C@H]2[C@@H](OC)[C@H](n3ccc(=O)[nH]c3=O)O[C@@H]2COP(=O)(O)O[C@H]2[C@@H](OC)[C@H](n3ccc(N)nc3=O)O[C@@H]2COP(=O)(O)O[C@H]2[C@@H](OC)[C@H](n3cnc4c(N)ncnc43)O[C@@H]2COP(=O)(O)O[C@H]2[C@@H](OC)[C@H](n3ccc(=O)[nH]c3=O)O[C@@H]2COP(=O)(O)O[C@H]2[C@@H](OC)[C@H](n3ccc(N)nc3=O)O[C@@H]2COP(=O)(O)O[C@H]2[C@@H](OC)[C@H](n3cnc4c(N)ncnc43)O[C@@H]2COP(=O)(O)O[C@H]2[C@@H](OC)[C@H](n3ccc(N)nc3=O)O[C@@H]2COP(=O)(O)O[C@H]2[C@@H](OC)[C@H](n3cnc4c(N)ncnc43)O[C@@H]2COP(=O)(O)OP(=O)(O)O[C@H]2[C@@H](OC)[C@H](n3cnc4c(N)ncnc43)O[C@@H]2COP(=O)(O)O[C@H]2[C@@H](OC)[C@H](n3ccc(N)nc3=O)O[C@@H]2COP(=O)(O)O[C@H]2[C@@H](OC)[C@H](n3ccc(N)nc3=O)O[C@@H]2COP(=O)(O)O[C@H]2[C@@H](OC)[C@H](n3ccc(N)nc3=O)O[C@@H]2COP(=O)(O)O[C@H]2[C@@H](OC)[C@H](n3cnc4c(N)ncnc43)O[C@@H]2COP(=O)(O)O[C@H]2C[C@H](n3cc(C)c(=O)[nH]c3=O)O[C@@H]2CN2C=C(CO[C@H]3CC[C@@]4(C)C(=CC[C@H]5[C@@H]6CC[C@H]([C@H](C)CCCC(C)C)[C@@]6(C)CC[C@@H]54)C3)NN2)O[C@H]1n1ccc(N)nc1=O | Non-toxic | Dose-dependent effect |  | 50 |
